Laboratory results published in PMC4272272 (PLoS ONE, 2014).
Read-outs that look alike come from different tables or passages of the source.

Assays:
[1] = test system: albumin and α-acidic glycoprotein; conditions: plasma protein binding; cited from earlier work
Excerpt: Insulin treatment remains the main therapy for the control of hyperglycemia in diabetic patients with ESRD requiring hemodialysis, but it sometimes induces severe hypoglycemia.

[2] = set-up: method as in earlier work; conditions: ref 2 (Ishida et al., 2011) of supplement, cited from earlier work
[3] = Safety assessment (adverse events, physical examination, vital signs) after liraglutide; format: in vivo, human; conditions: off-hemodialysis (day 2) or on-hemodialysis (day 3); 0.6 or 0.9 mg s.c.; 10 patients
Protocol: The severity and causal relationship to liraglutide of all treatment-related adverse events in these patients were assessed by the investigators. A physical examination, including vital signs (blood pressure and heart rate) and clinical laboratory biochemical tests, was also performed on each patient.

[4] = set-up: method as in PMID 23445717; conditions: cited from earlier work
[5] = cited from earlier work; for Liraglutide AUC lower than in healthy subjects, on average: single dose, ref 1 (Jacobsen et al., 2009) of supplement
[6] = test system: plasma glucose; conditions: CGM, mean ± SD, n = 10
[7] = human, in vivo; cited from earlier work

For CCCCCCCCCCCCCCCC(=O)N[C@@H](CCC(=O)NCCCC[C@H](NC(=O)[C@H](C)NC(=O)[C@H](C)NC(=O)[C@H](CCC(N)=O)NC(=O)CNC(=O)[C@H](CCC(=O)O)NC(=O)[C@H](CC(C)C)NC(=O)[C@H](Cc1ccc(O)cc1)NC(=O)[C@H](CO)NC(=O)[C@H](CO)NC(=O)[C@@H](NC(=O)[C@H](CC(=O)O)NC(=O)[C@H](CO)NC(=O)[C@@H](NC(=O)[C@H](Cc1ccccc1)NC(=O)[C@@H](NC(=O)CNC(=O)[C@H](CCC(=O)O)NC(=O)[C@H](C)NC(=O)[C@@H](N)Cc1cnc[nH]1)[C@@H](C)O)[C@@H](C)O)C(C)C)C(=O)N[C@@H](CCC(=O)O)C(=O)N[C@@H](Cc1ccccc1)C(=O)N[C@H](C(=O)N[C@@H](C)C(=O)N[C@@H](Cc1c[nH]c2ccccc12)C(=O)N[C@@H](CC(C)C)C(=O)N[C@H](C(=O)N[C@@H](CCCNC(=N)N)C(=O)NCC(=O)N[C@@H](CCCNC(=N)N)C(=O)NCC(=O)O)C(C)C)[C@@H](C)CC)C(=O)O [liraglutide], the “Liraglutide binding to albumin and α-acidic glycoprotein” value [1] is listed as “approximately 99%”, the “Patients withdrawn from liraglutide treatment due to nausea” value ([2]; 19 patients switched from insulin) is listed as “Two patients” and the “Hypoglycemia symptoms after the switch to liraglutide” value ([2]; 30% of the subjects complained before the switch) is listed as “not observed”. For the same compound, the “Glycosylated haemoglobin 1c (HbA1c) after one month of liraglutide” value ([2]; from 5.3±0.5 before the switch from insulin, p= 0.07, 19 patients) was 5.1±0.5, the “Glycoalbumin (GA) after one-month treatment of liraglutide” value ([2]; from 21.0±2.2 before the switch from insulin, p= 0.02, 19 patients) was 19.4±2.4% and the “Adverse events, including signs of hypoglycemia” value [3] was “No adverse events”. For the same compound, the Adverse events ([4]; 0.3 mg/day, nine diabetic Japanese patients with ESRD) was “no adverse events”, the “Mean period of hypoglycemia after liraglutide administration” value ([4]; 0.3 mg, diabetic patients with ESRD undergoing hemodialysis) was “approximately 50 min/day” and the “Liraglutide AUC lower than in healthy subjects, on average” value (“Liraglutide AUC lower than” below) ([5]; end-stage renal disease) was 26%. The “Liraglutide AUC lower than” value ([5]; mild renal impairment) was 33%, the “Liraglutide AUC lower than” value ([5]; moderate renal impairment) was 14% and the “Liraglutide AUC lower than” value ([5]; severe renal impairment) was 27%. For the same compound, the Adverse events ([5]; single injection 0.75 mg, non-diabetic Caucasian patients with varying degrees of renal impairment) was 2 events of vomiting and 1 event of nausea, the “AUC during 24 hr in hyperglycemia (>180 mg/dL)” value ([6]; off-hemodialysis (day 2)) was 7746.0 ± 17246.4 mg·min/dL and the “MAGE (mean amplitude of glycemic excursions)” value ([6]; off-hemodialysis (day 2)) was 55.6 ± 27.4 mg/dL. For the same compound, the Minimum glucose level ([6]; off-hemodialysis (day 2)) was 92.7 ± 27.1 mg/dL, the “Time during 24 hr in hyperglycemia (>180 mg/dL)” value ([6]; off-hemodialysis (day 2)) was 214.5 ± 388.4 min and the “AUC during 24 hr in hyperglycemia (>180 mg/dL)” value ([6]; on-hemodialysis (day 3)) was 11427.5 ± 19184.4 mg·min/dL. The “MAGE (mean amplitude of glycemic excursions)” value ([6]; on-hemodialysis (day 3)) was 90.0 ± 65.7 mg/dL, the Minimum glucose level ([6]; on-hemodialysis (day 3)) was 88.4 ± 21.4 mg/dL and the “Time during 24 hr in hyperglycemia (>180 mg/dL)” value ([6]; on-hemodialysis (day 3)) was 210.0 ± 282.9 min.
In the case of exenatide, the “AUC0–∞ in non-diabetic patients with ESRD relative to healthy controls” value [7] is listed as 3.37 times and the “Cmax in non-diabetic patients with ESRD relative to healthy controls” value [7] is listed as 1.38 times.
